Test results as given in the CheMixHub viscosity set.

Assay: xn = mol fraction of the nth substance listed

CC1CCCO1 (centres undefined) + Clc1ccccc1
298.15 K, 101 kPa
Details | viscosity [mPa·s]
x2 = 0.0188 | 0.47
x2 = 0.0509 | 0.482
x2 = 0.103 | 0.501
x2 = 0.157 | 0.52
x2 = 0.2126 | 0.54
x2 = 0.2712 | 0.56
x2 = 0.3298 | 0.579
x2 = 0.3913 | 0.598
x2 = 0.4548 | 0.617
x2 = 0.5206 | 0.635
x2 = 0.5892 | 0.654
x2 = 0.6601 | 0.671
x2 = 0.7334 | 0.689
x2 = 0.8094 | 0.705
x2 = 0.889 | 0.722
x2 = 0.9713 | 0.737

C1CCC2=[NH+]CCCN2CC1.c1nc[n-]n1 + CCCCO
303.15 K, 100 kPa
Details | viscosity [mPa·s]
x1 = 0.1001 | 6.47
x1 = 0.2 | 12.31
x1 = 0.2999 | 22.82
x1 = 0.4003 | 42.54
x1 = 0.4989 | 74.34
x1 = 0.6002 | 128.6
x1 = 0.7008 | 204.7
x1 = 0.7993 | 423.5
x1 = 0.9002 | 608.2

CCCCCC + CCCCO
viscosity [mPa·s]
Details | 298.15 K | 313.15 K | 318.15 K
101 kPa, x2 = 0.08 | 0.33 | – | 0.266
101 kPa, x2 = 0.1284 | 0.345 | – | 0.284
101 kPa, x2 = 0.1441 | 0.35 | – | 0.29
101 kPa, x2 = 0.2 | 0.385 | – | 0.311
101 kPa, x2 = 0.28 | 0.415 | – | 0.33
101.3 kPa, x2 = 0.0999 | 0.3222 | 0.2741 | –
101.3 kPa, x2 = 0.1997 | 0.3628 | 0.306 | –
101.3 kPa, x2 = 0.299 | 0.4227 | 0.3503 | –
101.3 kPa, x2 = 0.4007 | 0.5201 | 0.4169 | –
101.3 kPa, x2 = 0.499 | 0.642 | 0.5063 | –
101.3 kPa, x2 = 0.5988 | 0.8264 | 0.6311 | –
101.3 kPa, x2 = 0.6996 | 1.082 | 0.8166 | –
101.3 kPa, x2 = 0.8 | 1.421 | 1.041 | –
101.3 kPa, x2 = 0.8994 | 1.888 | 1.33 | –
101.33 kPa, x1 = 0.0971 | 1.848 | – | –
101.33 kPa, x1 = 0.1707 | 1.496 | – | –
101.33 kPa, x1 = 0.2625 | 1.169 | – | –
101.33 kPa, x1 = 0.3521 | 0.909 | – | –
101.33 kPa, x1 = 0.4142 | 0.778 | – | –
101.33 kPa, x1 = 0.562 | 0.539 | – | –
101.33 kPa, x1 = 0.6624 | 0.44 | – | –
101.33 kPa, x1 = 0.8147 | 0.348 | – | –
101.33 kPa, x1 = 0.9267 | 0.306 | – | –

CCOC(=O)CC + c1ccccc1
viscosity [mPa·s], 101.3 kPa
Details | 308.15 K | 318.15 K
x1 = 0.0521 | 0.53 | 0.47
x1 = 0.0984 | 0.525 | 0.47
x1 = 0.2018 | 0.513 | 0.469
x1 = 0.3029 | 0.503 | 0.468
x1 = 0.4009 | 0.495 | 0.465
x1 = 0.4991 | 0.487 | 0.462
x1 = 0.5982 | 0.481 | 0.459
x1 = 0.7114 | 0.475 | 0.453
x1 = 0.8042 | 0.472 | 0.448
x1 = 0.8989 | 0.469 | 0.443
x1 = 0.92 | 0.468 | 0.441

C=CC(=O)OC + CC#N
viscosity [mPa·s], 100 kPa
Details | 293.15 K | 298.15 K | 303.15 K | 308.15 K | 313.15 K | 318.15 K
x2 = 0.0591 | 0.4934 | 0.4511 | 0.4118 | 0.3786 | 0.3488 | 0.3221
x2 = 0.1171 | 0.4832 | 0.4422 | 0.4042 | 0.3721 | 0.3431 | 0.3171
x2 = 0.17 | 0.474 | 0.4343 | 0.3976 | 0.3664 | 0.3383 | 0.313
x2 = 0.2356 | 0.4627 | 0.4247 | 0.3896 | 0.3597 | 0.3327 | 0.3083
x2 = 0.2977 | 0.4524 | 0.416 | 0.3824 | 0.3537 | 0.3278 | 0.3043
x2 = 0.3615 | 0.4422 | 0.4074 | 0.3754 | 0.348 | 0.3232 | 0.3007
x2 = 0.4343 | 0.431 | 0.398 | 0.3679 | 0.3419 | 0.3185 | 0.2971
x2 = 0.5014 | 0.4212 | 0.3899 | 0.3614 | 0.3368 | 0.3146 | 0.2943
x2 = 0.5738 | 0.4112 | 0.3818 | 0.3551 | 0.332 | 0.311 | 0.2918
x2 = 0.6537 | 0.4009 | 0.3736 | 0.349 | 0.3274 | 0.3078 | 0.2897
x2 = 0.7623 | 0.3881 | 0.3635 | 0.3417 | 0.3223 | 0.3046 | 0.2883
x2 = 0.8155 | 0.3823 | 0.3592 | 0.3387 | 0.3204 | 0.3037 | 0.2882
x2 = 0.9074 | 0.3729 | 0.3523 | 0.3342 | 0.3179 | 0.303 | 0.2889

C=CC(=O)OCCCC + CCCCO
101.33 kPa
Details | viscosity [mPa·s]
293.15 K, x1 = 0.0999 | 2.173
293.15 K, x1 = 0.2001 | 1.725
293.15 K, x1 = 0.2999 | 1.448
293.15 K, x1 = 0.3998 | 1.245
293.15 K, x1 = 0.5002 | 1.117
293.15 K, x1 = 0.6002 | 1.025
293.15 K, x1 = 0.7002 | 0.9619
293.15 K, x1 = 0.8 | 0.9168
293.15 K, x1 = 0.9 | 0.8882
303.15 K, x1 = 0.0999 | 1.718
303.15 K, x1 = 0.1998 | 1.385
303.15 K, x1 = 0.3006 | 1.185
303.15 K, x1 = 0.3999 | 1.035
303.15 K, x1 = 0.4992 | 0.9378
303.15 K, x1 = 0.5983 | 0.8682
303.15 K, x1 = 0.6991 | 0.8213
303.15 K, x1 = 0.8002 | 0.784
303.15 K, x1 = 0.9003 | 0.7678
313.15 K, x1 = 0.1004 | 1.291
313.15 K, x1 = 0.2001 | 1.018
313.15 K, x1 = 0.3002 | 0.8796
313.15 K, x1 = 0.3999 | 0.7948
313.15 K, x1 = 0.4994 | 0.7351
313.15 K, x1 = 0.5998 | 0.7091
313.15 K, x1 = 0.6999 | 0.6745
313.15 K, x1 = 0.7578 | 0.6676
313.15 K, x1 = 0.8999 | 0.6659

CC1CCCO1 (centres undefined) + Brc1ccccc1
viscosity [mPa·s], 101 kPa
Details | x1 = 0.0991 | x1 = 0.1998 | x1 = 0.301 | x1 = 0.4046 | x1 = 0.5029
298.15 K | 1.007 | 0.9516 | 0.8942 | 0.8346 | 0.7773
313.15 K | 0.835 | 0.7895 | 0.7425 | 0.6943 | 0.6477
